Experimental data published in the NIST ThermoML archive (doi:10.1021/je700260f).

Settings: 283.14 K, Liquid, Vibrating tube method

FC(C(F)(F)F)C(F)(F)F [1,1,1,2,3,3,3-heptafluoropropane]
Settings	mass density [kg/m3]
933 kPa	1452.5
962 kPa	1452.6
988 kPa	1452.7
1029 kPa	1453
1062 kPa	1453.3
1091 kPa	1453.4
1127 kPa	1453.7
1160 kPa	1453.8
1193 kPa	1454
1227 kPa	1454.2
1264 kPa	1454.5
1297 kPa	1454.5
1331 kPa	1454.9
1362 kPa	1454.9
1400 kPa	1455.2
1438 kPa	1455.5
1476 kPa	1455.6
1508 kPa	1455.9
1543 kPa	1456
1576 kPa	1456.3
1621 kPa	1456.5
1656 kPa	1456.8
1696 kPa	1456.8
1725 kPa	1457.1
1760 kPa	1457.3
1800 kPa	1457.5
1829 kPa	1457.7
1869 kPa	1457.9
1899 kPa	1458.1
1939 kPa	1458.4
1978 kPa	1458.6
2027 kPa	1458.8
2062 kPa	1459.1
2097 kPa	1459.2
2137 kPa	1459.6
2167 kPa	1459.6
2214 kPa	1460
2245 kPa	1460.1
2282 kPa	1460.4
2317 kPa	1460.6
2349 kPa	1460.8
2385 kPa	1460.9
2431 kPa	1461.1
2457 kPa	1461.1
2499 kPa	1461.5
2536 kPa	1461.6
2578 kPa	1461.9
2615 kPa	1462.1
3150 kPa	1465
3179 kPa	1465.2
3208 kPa	1465.5
3236 kPa	1465.6
3261 kPa	1465.6
3292 kPa	1465.8
3316 kPa	1465.9
3349 kPa	1466.2
3370 kPa	1466.4
3404 kPa	1466.4
3440 kPa	1466.6
3467 kPa	1466.9
3502 kPa	1467
3528 kPa	1467
3555 kPa	1467.3
3582 kPa	1467.3
3606 kPa	1467.5
3630 kPa	1467.6
3997 kPa	1469.6
4037 kPa	1469.8
4059 kPa	1469.8
4089 kPa	1470.1
4112 kPa	1470.1
4138 kPa	1470.4
4161 kPa	1470.5
4194 kPa	1470.6
4220 kPa	1470.8
4246 kPa	1470.9
4268 kPa	1471.1
4295 kPa	1471.2
4326 kPa	1471.4
4370 kPa	1471.5
4397 kPa	1471.6
4431 kPa	1471.8
4454 kPa	1472
4485 kPa	1472.1
4521 kPa	1472.3
4552 kPa	1472.4
4587 kPa	1472.7
4611 kPa	1472.8
4642 kPa	1472.9
4662 kPa	1473.1
4691 kPa	1473.2
4714 kPa	1473.3
4746 kPa	1473.5
4770 kPa	1473.6
4833 kPa	1473.9
4872 kPa	1474.1
4976 kPa	1474.5
5454 kPa	1477.2
5490 kPa	1477.3
5691 kPa	1478.2
5724 kPa	1478.4
5757 kPa	1478.6
5782 kPa	1478.8
5822 kPa	1478.8
5855 kPa	1479
5879 kPa	1479.1
5908 kPa	1479.3
5934 kPa	1479.4
5968 kPa	1479.6
6005 kPa	1479.8
6027 kPa	1480
6058 kPa	1480
6101 kPa	1480.2
6135 kPa	1480.5
6165 kPa	1480.5
6229 kPa	1480.8
6973 kPa	1484.5
7472 kPa	1486.7
7512 kPa	1487.1
7539 kPa	1487.1
7568 kPa	1487.2
7596 kPa	1487.1
7625 kPa	1487.3
7646 kPa	1487.8
7680 kPa	1487.8
7705 kPa	1487.9
7731 kPa	1488
7762 kPa	1488.1
7796 kPa	1488.3
7826 kPa	1488.4
7851 kPa	1488.5
7877 kPa	1488.7
7906 kPa	1488.9
7932 kPa	1488.9
7965 kPa	1489
7991 kPa	1489.2
8025 kPa	1489.4
8050 kPa	1489.5
8079 kPa	1489.7
8109 kPa	1489.6
8138 kPa	1489.9
8164 kPa	1490.1
8197 kPa	1490
8223 kPa	1490.2
8257 kPa	1490.4
8291 kPa	1490.6
8322 kPa	1490.7
10618 kPa	1500.7
10644 kPa	1500.8
10678 kPa	1500.9
10708 kPa	1501.2
10744 kPa	1501.3
11092 kPa	1502.7
11124 kPa	1502.9
11146 kPa	1503
11176 kPa	1503.1
11211 kPa	1503.2
11232 kPa	1503.2
11263 kPa	1503.4
11289 kPa	1503.6
11324 kPa	1503.9
11358 kPa	1503.9
11384 kPa	1503.9
11414 kPa	1504.1
11455 kPa	1504.2
11478 kPa	1504.3
11508 kPa	1504.4
11538 kPa	1504.5
11565 kPa	1504.7
11601 kPa	1504.8
11631 kPa	1505
11663 kPa	1505
11698 kPa	1505.4
11725 kPa	1505.4
11760 kPa	1505.6
11791 kPa	1505.6
11822 kPa	1505.7
11844 kPa	1505.9
11874 kPa	1506
11901 kPa	1506.1
11923 kPa	1506.3
11958 kPa	1506.3
11993 kPa	1506.4
12020 kPa	1506.5
12055 kPa	1506.7
12082 kPa	1506.9
12816 kPa	1509.7
12856 kPa	1510.1
12892 kPa	1510.2
12918 kPa	1510.3
12955 kPa	1510.4
12996 kPa	1510.6
13027 kPa	1510.6
13054 kPa	1510.9
13090 kPa	1510.9
13123 kPa	1511
13165 kPa	1511.2
13197 kPa	1511.2
13235 kPa	1511.5
13290 kPa	1511.7
13323 kPa	1511.8
13385 kPa	1512
13417 kPa	1512.2
13454 kPa	1512.2
13483 kPa	1512.4
